Experimental data published in ChEMBL document CHEMBL4396905, “Design, synthesis and in vitro evaluation of 6-amide-2-aryl benzoxazole/benzimidazole derivatives against tumor cells by inhibiting VEGFR-2 kinase” (Eur J Med Chem, 2019).
Each block holds one compound with its values, some of them ahead of it.

Tests used:
A549 = assay: Antiproliferative activity against human A549 cells expressing EGFR assessed as reduction in cell growth incubated for 48 hrs by MTT assay; type: functional, cell-based; conditions: A549, 48 h
HepG2 = assay: Antiproliferative activity against human HepG2 cells expressing VEGFR2 assessed as reduction in cell growth incubated for 48 hrs by MTT assay; type: functional, cell-based; conditions: HepG2, 48 h
MDA-MB-231 = assay: Antiproliferative activity against human MDA-MB-231 cells expressing EGFR assessed as reduction in cell growth incubated for 48 hrs by MTT assay; type: functional, cell-based; conditions: MDA-MB-231, 48 h
[1] = target: Epidermal growth factor receptor (Homo sapiens) (UniProt P00533); assay: Inhibition of EGFR (unknown origin) using Poly (Glu, Tyr) 4:1 as substrate at 1 uM preincubated with substrate followed by enzyme challenge for 1 hr by ELISA relative to control
Sequence of Epidermal growth factor receptor (Homo sapiens) (P00533 whole entry): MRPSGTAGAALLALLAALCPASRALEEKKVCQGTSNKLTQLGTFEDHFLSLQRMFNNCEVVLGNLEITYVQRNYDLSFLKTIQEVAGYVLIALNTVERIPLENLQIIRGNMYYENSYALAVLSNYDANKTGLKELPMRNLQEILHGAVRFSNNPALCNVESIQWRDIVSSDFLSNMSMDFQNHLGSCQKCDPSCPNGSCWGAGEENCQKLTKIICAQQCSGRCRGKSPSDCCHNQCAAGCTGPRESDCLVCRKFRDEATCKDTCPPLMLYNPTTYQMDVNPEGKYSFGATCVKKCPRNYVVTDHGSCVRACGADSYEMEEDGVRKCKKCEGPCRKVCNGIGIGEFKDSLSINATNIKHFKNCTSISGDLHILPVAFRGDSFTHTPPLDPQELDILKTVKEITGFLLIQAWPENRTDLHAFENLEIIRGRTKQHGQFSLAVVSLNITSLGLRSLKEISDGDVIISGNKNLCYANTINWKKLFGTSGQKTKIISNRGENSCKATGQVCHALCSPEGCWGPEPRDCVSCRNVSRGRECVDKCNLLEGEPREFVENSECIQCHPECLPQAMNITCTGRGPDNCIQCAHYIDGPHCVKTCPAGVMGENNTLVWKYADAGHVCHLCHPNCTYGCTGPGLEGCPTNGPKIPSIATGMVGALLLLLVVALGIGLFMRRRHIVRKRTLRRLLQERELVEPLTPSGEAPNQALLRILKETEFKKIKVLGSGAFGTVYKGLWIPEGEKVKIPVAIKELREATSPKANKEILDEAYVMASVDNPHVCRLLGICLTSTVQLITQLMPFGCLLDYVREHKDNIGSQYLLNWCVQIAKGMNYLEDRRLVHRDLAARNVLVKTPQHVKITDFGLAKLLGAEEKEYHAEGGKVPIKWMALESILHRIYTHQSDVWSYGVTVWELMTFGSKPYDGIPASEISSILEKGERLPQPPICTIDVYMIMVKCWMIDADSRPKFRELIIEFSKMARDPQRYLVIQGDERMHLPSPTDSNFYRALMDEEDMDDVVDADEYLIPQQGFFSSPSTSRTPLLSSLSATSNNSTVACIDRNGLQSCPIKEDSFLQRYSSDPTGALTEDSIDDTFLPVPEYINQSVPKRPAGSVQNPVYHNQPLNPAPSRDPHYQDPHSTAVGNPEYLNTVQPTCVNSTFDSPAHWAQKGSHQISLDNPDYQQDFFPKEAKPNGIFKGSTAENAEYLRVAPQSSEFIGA

[2] = target: T1, Vascular endothelial growth factor receptor 2 (Homo sapiens, UniProt P35968); conditions: at 1 µM
T1 sequence (P35968 whole entry): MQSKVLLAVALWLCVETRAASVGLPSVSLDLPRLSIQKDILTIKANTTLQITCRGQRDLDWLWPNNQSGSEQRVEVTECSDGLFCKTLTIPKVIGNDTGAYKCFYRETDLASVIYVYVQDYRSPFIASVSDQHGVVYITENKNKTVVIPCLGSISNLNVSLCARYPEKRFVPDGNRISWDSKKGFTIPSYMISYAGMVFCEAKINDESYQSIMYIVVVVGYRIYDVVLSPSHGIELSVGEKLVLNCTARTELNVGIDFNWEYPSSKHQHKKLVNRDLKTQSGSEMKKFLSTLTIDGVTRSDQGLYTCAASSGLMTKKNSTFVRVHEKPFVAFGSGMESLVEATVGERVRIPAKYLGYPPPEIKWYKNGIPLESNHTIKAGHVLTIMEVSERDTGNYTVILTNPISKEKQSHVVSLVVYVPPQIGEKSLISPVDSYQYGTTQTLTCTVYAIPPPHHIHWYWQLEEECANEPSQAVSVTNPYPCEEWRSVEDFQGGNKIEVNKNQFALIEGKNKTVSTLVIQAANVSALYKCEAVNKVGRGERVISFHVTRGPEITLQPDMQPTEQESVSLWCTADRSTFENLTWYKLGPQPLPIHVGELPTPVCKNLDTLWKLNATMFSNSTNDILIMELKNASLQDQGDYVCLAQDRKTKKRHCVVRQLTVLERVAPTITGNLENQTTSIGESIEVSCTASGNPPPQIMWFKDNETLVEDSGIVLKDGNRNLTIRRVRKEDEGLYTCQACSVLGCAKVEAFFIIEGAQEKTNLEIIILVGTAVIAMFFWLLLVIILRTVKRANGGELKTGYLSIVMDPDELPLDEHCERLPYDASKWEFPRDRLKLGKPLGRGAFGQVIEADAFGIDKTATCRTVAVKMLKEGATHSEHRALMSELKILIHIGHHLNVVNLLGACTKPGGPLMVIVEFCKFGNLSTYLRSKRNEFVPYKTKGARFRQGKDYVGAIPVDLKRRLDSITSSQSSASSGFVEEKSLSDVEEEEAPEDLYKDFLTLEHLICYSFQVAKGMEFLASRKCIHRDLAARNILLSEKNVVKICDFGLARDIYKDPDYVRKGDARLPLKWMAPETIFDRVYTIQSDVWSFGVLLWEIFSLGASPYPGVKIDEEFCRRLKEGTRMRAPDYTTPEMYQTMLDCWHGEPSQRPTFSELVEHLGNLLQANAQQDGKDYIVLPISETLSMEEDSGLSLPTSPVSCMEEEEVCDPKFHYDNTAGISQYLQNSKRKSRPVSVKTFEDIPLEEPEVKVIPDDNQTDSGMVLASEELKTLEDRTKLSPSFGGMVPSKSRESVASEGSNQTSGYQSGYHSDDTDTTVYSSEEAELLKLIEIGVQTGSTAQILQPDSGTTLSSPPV
Description: Inhibition of VEGFR2 (unknown origin) using Poly (Glu, Tyr) 4:1 as substrate at 1 uM preincubated with substrate followed by enzyme challenge for 1 hr by ELISA relative to control

HUVEC = assay: Antiproliferative activity against human HUVEC cells expressing VEGFR2 assessed as reduction in cell growth incubated for 48 hrs by MTT assay; type: functional, cell-based
[3] = target: T1, Vascular endothelial growth factor receptor 2; assay: Inhibition of VEGFR2 (unknown origin) using Poly (Glu, Tyr) 4:1 as substrate preincubated with substrate followed by enzyme challenge for 1 hr by ELISA

Compound: COc1ccc(CC(=O)Nc2ccc3oc(-c4ccccc4Cl)nc3c2)cc1
IC50 (A549): > 100 µM
IC50 (HepG2): 30.8 µM
IC50 (MDA-MB-231): 76.2 µM
inhibition [1]: 43.8%
inhibition [2]: 90.1%
IC50 [3]: 444 nM
IC50 (HUVEC): 15.4 µM

Compound: COc1ccc(CC(=O)Nc2ccc3oc(-c4ccccc4Br)nc3c2)cc1
IC50 (A549): 55.2 µM
IC50 (HepG2): 47 µM
IC50 (MDA-MB-231): 84.3 µM
inhibition [1]: 36.2%
inhibition [2]: 87.3%
IC50 (HUVEC): 26.2 µM

Compound: Cc1ccc(CC(=O)Nc2ccc3oc(-c4ccc(Cl)c(Br)c4)nc3c2)cc1
IC50 (A549): > 100 µM
IC50 (HepG2): 64.2 µM
IC50 (MDA-MB-231): > 100 µM
inhibition [1]: 37.4%
inhibition [2]: 81.7%
IC50 (HUVEC): 37.2 µM

Compound: COc1ccc(CC(=O)Nc2ccc3oc(-c4ccc(C)cc4)nc3c2)cc1
IC50 (A549): > 100 µM
IC50 (HepG2): > 100 µM
IC50 (MDA-MB-231): > 100 µM
inhibition [1]: 21.6%
inhibition [2]: 43.2%
IC50 (HUVEC): 57.5 µM

Compound: COc1cc(CC(=O)Nc2ccc3[nH]c(-c4ccc(Cl)cc4)nc3c2)cc(OC)c1OC
IC50 (A549): 36.8 µM
IC50 (HepG2): 3.43 µM
IC50 (MDA-MB-231): 75.9 µM
inhibition [1]: 43.1%
inhibition [2]: 90.2%
IC50 [3]: 419 nM
IC50 (HUVEC): 7.32 µM

Compound: O=C(Nc1ccc2oc(-c3ccccc3Br)nc2c1)c1ccc(Br)c(F)c1
IC50 (A549): 66.2 µM
IC50 (HepG2): 31.2 µM
IC50 (MDA-MB-231): > 100 µM
inhibition [1]: 21.8%
inhibition [2]: 62.3%
IC50 (HUVEC): 52.3 µM

Compound: O=C(Nc1ccc2oc(-c3ccccc3F)nc2c1)c1ccc(Br)c(F)c1
IC50 (A549): 28.3 µM
IC50 (HepG2): 16.4 µM
IC50 (MDA-MB-231): > 100 µM
inhibition [1]: 32.6%
inhibition [2]: 63.8%
IC50 (HUVEC): 40.2 µM

Compound: COc1ccc(CC(=O)Nc2ccc3oc(-c4ccccc4)nc3c2)cc1OC
IC50 (A549): 89.2 µM
IC50 (HepG2): 16.4 µM
IC50 (MDA-MB-231): 94.3 µM
inhibition [1]: 37.2%
inhibition [2]: 83.5%
IC50 [3]: 579 nM
IC50 (HUVEC): 18.4 µM

Compound: COc1cc(CC(=O)Nc2ccc3oc(-c4ccccc4)nc3c2)cc(OC)c1OC
IC50 (A549): 93.4 µM
IC50 (HepG2): 26.4 µM
IC50 (MDA-MB-231): 79.5 µM
inhibition [1]: 47.3%
inhibition [2]: 89.3%
IC50 [3]: 357 nM
IC50 (HUVEC): 19.2 µM

Compound: COc1ccc(CC(=O)Nc2ccc3oc(-c4ccc(OC)cc4)nc3c2)cc1
IC50 (A549): > 100 µM
IC50 (HepG2): > 100 µM
IC50 (MDA-MB-231): > 100 µM
inhibition [1]: 19.4%
inhibition [2]: 38.4%
IC50 (HUVEC): 63.6 µM

Compound: O=C(Nc1ccc2[nH]c(-c3ccc(Cl)cc3)nc2c1)c1ccc(Cl)c(Br)c1
IC50 (A549): 30.4 µM
IC50 (HepG2): 12 µM
IC50 (MDA-MB-231): 74.4 µM
inhibition [1]: 40.8%
inhibition [2]: 93.8%
IC50 [3]: 542 nM
IC50 (HUVEC): 7.61 µM

Compound: COc1ccc(CC(=O)Nc2ccc3oc(-c4ccccc4F)nc3c2)cc1OC
IC50 (A549): > 100 µM
IC50 (HepG2): > 100 µM
IC50 (MDA-MB-231): > 100 µM
inhibition [1]: 32.3%
inhibition [2]: 84.2%
IC50 (HUVEC): 16.2 µM

Compound: O=C(Nc1ccc2oc(-c3ccccc3Br)nc2c1)c1ccc(Cl)c(Br)c1
IC50 (A549): 53.4 µM
IC50 (HepG2): 57.3 µM
IC50 (MDA-MB-231): > 100 µM
inhibition [1]: 27.5%
inhibition [2]: 71.4%
IC50 (HUVEC): 37.3 µM

Compound: COc1ccc(CC(=O)Nc2ccc3oc(-c4ccc(Cl)c(Br)c4)nc3c2)cc1
IC50 (A549): > 100 µM
IC50 (HepG2): > 100 µM
IC50 (MDA-MB-231): > 100 µM
inhibition [1]: 36.3%
inhibition [2]: 79.9%
IC50 (HUVEC): 38.3 µM

Further lines, with some results ahead:

IC50 (A549): > 100 µM
IC50 (HepG2): 33 µM
IC50 (MDA-MB-231): > 100 µM
inhibition [1]: 21.4%
inhibition [2]: 59.5%
Compound: O=C(Nc1ccc2oc(-c3ccccc3Cl)nc2c1)c1ccc(Br)c(F)c1
IC50 (HUVEC): 50.2 µM

IC50 (A549): 47.4 µM
IC50 (HepG2): 59.2 µM
IC50 (MDA-MB-231): > 100 µM
inhibition [1]: 18.4%
inhibition [2]: 36.5%
Compound: O=C(Nc1ccc2oc(-c3ccc(Cl)c(Br)c3)nc2c1)c1ccc(Br)c(F)c1
IC50 (HUVEC): 75.3 µM

IC50 (A549): > 100 µM
IC50 (HepG2): 8.28 µM
IC50 (MDA-MB-231): > 100 µM
inhibition [1]: 27.8%
inhibition [2]: 70.9%
Compound: O=C(Nc1ccc2oc(-c3ccccc3F)nc2c1)c1ccc(Cl)c(F)c1
IC50 (HUVEC): 20.5 µM

IC50 (A549): 46.8 µM
IC50 (HepG2): 52.7 µM
IC50 (MDA-MB-231): 87.8 µM
inhibition [1]: 14.6%
inhibition [2]: 40.2%
Compound: O=C(Nc1ccc2oc(-c3ccc(Cl)c(Br)c3)nc2c1)c1ccc(Cl)c(F)c1
IC50 (HUVEC): 69.3 µM

IC50 (A549): > 100 µM
IC50 (HepG2): 91.9 µM
IC50 (MDA-MB-231): > 100 µM
inhibition [1]: 13.9%
inhibition [2]: 47.8%
Compound: O=C(Nc1ccc2oc(-c3ccccc3)nc2c1)c1ccc(Cl)c(F)c1
IC50 (HUVEC): 27.4 µM

IC50 (A549): 74.2 µM
IC50 (HepG2): 86.2 µM
IC50 (MDA-MB-231): 93.3 µM
inhibition [1]: 22.6%
inhibition [2]: 59.3%
Compound: O=C(Nc1ccc2oc(-c3ccccc3Br)nc2c1)c1ccc(Cl)c(F)c1
IC50 (HUVEC): 50.6 µM

IC50 (A549): 78.6 µM
IC50 (HepG2): 68.2 µM
IC50 (MDA-MB-231): > 100 µM
inhibition [1]: 32.5%
inhibition [2]: 72.4%
Compound: O=C(Nc1ccc2oc(-c3ccccc3)nc2c1)c1ccc(Cl)c(Br)c1
IC50 (HUVEC): 16.9 µM
